How the values were obtained:
[1] = tested on: CRF1R-mediated Akt phosphorylation; test: CRF-induced Akt phosphorylation at Ser473 in COS-7 cells expressing HA-CRF1R; type: cell-based, human; conditions: PP2 10 μM, 30 min pretreatment; 100 nM CRF, 5 min
Protocol: (§1) Plasmid pRK5 encoding the carboxyl terminus of βARK that contains its βγ-binding domain (ct-βARK) was kindly provided by Dr. W. Koch (Center for Translational Medicine, Temple University, Philadelphia, PA), which is a scavenger for G protein βγ subunits ([25]). […] Plasmid pUSEamp encoding dominant-negative Akt-K179M (dn-Akt) was from Upstate Biotechnology (Lake Placid, NY).
(§2) COS-7 cells (from the American Type Culture Collection) were cultured at 37°C in a humidified atmosphere of 95% air, 5% CO2, in DMEM supplemented with 10% FBS, 100 μg/ml streptomycin, and 100 units/ml penicillin (COS-7 growth medium). Transient transfections were performed using LipofectAMINE (Life Technologies: Gaithersburg, MD) as described previously ([27]). Cells were seeded at 8 × 10^5 cells/10-cm dish in COS-7 medium and cultured for 3 days before transfection. COS-7 cells were transfected in 5 ml/dish OptiMEM containing 10 μg/ml LipofectAMINE with empty vector, pcDNA3 encoding the HA-CRF1R or the HA-CRF1R-Δ386 mutant. […] After replacing the transfection medium with fresh growth medium, transfected COS-7 cells were cultured for 1 day. Subsequently, cells were re-seeded in 6-well plates and cultured for an additional day prior to the experiment.
The protocols for measuring total and phosphorylated ERK1/2, c-Src, PYK2, Akt, and EGFR have been previously published ([28], [29]). After cells were cultured to 60–70% confluence, they were serum-deprived for 24 h. On the day of the experiment, cells were treated with the indicated ligands and inhibitors. […] After treatment, cells were placed on ice, the media was aspirated, and the cells were washed twice with ice-cold PBS and lysed in 100 μl of Laemmli sample buffer 1X. The lysates were briefly sonicated, heated at 95°C for 5 min, and centrifuged for 5 min at 14,000 rpm. Resulting supernatants were loaded in separate lanes of a 10% SDS-PAGE gels and electrophoresed. Next, Western transfer on to PDVF membranes was completed. The Western blots were then probed with specific antibodies targeting phosphorylated and non-phosphorylated forms of ERK1/2, c-Src, PYK2, Akt, and EGFR for primary immunodetection. […] The labeled bands were quantified using the Quantity One 4.6.3 software program (Bio-Rad).
Figure 7 CRF mediates Akt activation. […] Total cell lysates were separated by SDS-PAGE and analyzed by immunoblotting with anti-p-Akt Ser^473, as described in Materials and Methods. Akt phosphorylation was quantitated by densitometry, and mean values were plotted from three to five independent experiments. […]

[2] = tested on: CRF1R-mediated ERK1/2 phosphorylation; test: Modulation of CRF-stimulated ERK1/2 phosphorylation in COS-7 cells expressing HA-CRF1R; type: cell-based; conditions: 100 nM CRF, 5 min
Protocol: as §1, §2
The protocols for measuring total and phosphorylated ERK1/2, c-Src, PYK2, Akt, and EGFR have been previously published ([28], [29]). After cells were cultured to 60–70% confluence, they were serum-deprived for 24 h. On the day of the experiment, cells were treated with the indicated ligands and inhibitors. […] After treatment, cells were placed on ice, the media was aspirated, and the cells were washed twice with ice-cold PBS and lysed in 100 μl of Laemmli sample buffer 1X. The lysates were briefly sonicated, heated at 95°C for 5 min, and centrifuged for 5 min at 14,000 rpm. Resulting supernatants were loaded in separate lanes of a 10% SDS-PAGE gels and electrophoresed. Next, Western transfer on to PDVF membranes was completed. The Western blots were then probed with specific antibodies targeting phosphorylated and non-phosphorylated forms of ERK1/2, c-Src, PYK2, Akt, and EGFR for primary immunodetection. After blots were probed with horseradish peroxidase-conjugated secondary antibody, protein bands were visualized with enhanced chemiluminescence ECL reagent (Amersham Pharmacia Biotech, Piscataway, NJ or Pierce Biotechnology, Rockford, IL) and scanned using the GS-800 Calibrated Imaging Densitometer (Bio-Rad). The labeled bands were quantified using the Quantity One 4.6.3 software program (Bio-Rad).
Total cell lysates were separated by SDS-PAGE and analyzed by immunoblotting with anti-p-ERK1/2 Thr^202/Tyr^204, as described in Materials and Methods. ERK1/2 phosphorylation was quantitated by densitometry, and mean values were plotted from five independent experiments.
Total cell lysates were separated by SDS-PAGE and analyzed by immunoblotting with anti-p-ERK1/2 Thr^202/Tyr^204 (A–D) or anti-p-EGFR Tyr^1068 (E), as described in Materials and Methods. ERK1/2 and EGFR phosphorylation were quantitated by densitometry, and mean values were plotted from three to five independent experiments.
Total cell lysates were separated by SDS-PAGE and analyzed by immunoblotting with anti-p-ERK1/2 Thr^202/Tyr^204, as described in Materials and Methods. ERK1/2 phosphorylation was quantitated by densitometry, and mean values were plotted from three to five independent experiments.

Src = test: CRF-induced Src phosphorylation at Tyr416 in COS-7 cells expressing HA-CRF1R; type: cell-based; conditions: 10 μM PP2, 30 min pretreatment; 100 nM CRF, 5 min
Protocol: as §2, with “Subsequently, cells were re-seeded in 6-well plates and cultured for an additional day prior to the experiment.” left out
(§3) The protocols for measuring total and phosphorylated ERK1/2, c-Src, PYK2, Akt, and EGFR have been previously published ([28], [29]). […] The labeled bands were quantified using the Quantity One 4.6.3 software program (Bio-Rad).
Figure 5 Role of Src tyrosine kinase in CRF-stimulated ERK1/2 phosphorylation. […] Total cell lysates were separated by SDS-PAGE and analyzed by immunoblotting with anti-p-Src Tyr^416 (A,B) or anti-p-ERK1/2 Thr^202/Tyr^204 (C–E), as described in Materials and Methods. Src, PYK2, and ERK1/2 phosphorylation were quantitated by densitometry, and mean values were plotted from three to five independent experiments. […]

EGFR Tyr845 = test: CRF-induced EGFR phosphorylation at Tyr845 in COS-7 cells expressing HA-CRF1R; type: cell-based; conditions: 10 μM PP2, 30 min pretreatment; 100 nM CRF, 5 min
Protocol: (§4) COS-7 cells (from the American Type Culture Collection) were cultured at 37°C in a humidified atmosphere of 95% air, 5% CO2, in DMEM supplemented with 10% FBS, 100 μg/ml streptomycin, and 100 units/ml penicillin (COS-7 growth medium). Transient transfections were performed using LipofectAMINE (Life Technologies: Gaithersburg, MD) as described previously ([27]). Cells were seeded at 8 × 10^5 cells/10-cm dish in COS-7 medium and cultured for 3 days before transfection. COS-7 cells were transfected in 5 ml/dish OptiMEM containing 10 μg/ml LipofectAMINE with empty vector, pcDNA3 encoding the HA-CRF1R or the HA-CRF1R-Δ386 mutant. […]
as §3
(§5) Figure 6 CRF mediates EGFR phosphorylation at Tyr^845 and activation of PYK2. […] Total cell lysates were separated by SDS-PAGE and analyzed by immunoblotting with anti-p-EGFR Tyr^845 (A,B) or anti-p-PYK2 Tyr^402 (E), as described in Materials and Methods. EGFR and ERK1/2 phosphorylation were quantitated by densitometry, and mean values were plotted from three to five independent experiments. […] Src and EGFR were quantitated by densitometry, and mean values were plotted from three independent experiments. […]

PYK2 = test: CRF-induced PYK2 phosphorylation at Tyr402 in COS-7 cells expressing HA-CRF1R; type: cell-based; conditions: PP2 (discussion)
Protocol: as §4, §3, §5

[3] = tested on: MEK1/2-mediated phosphorylation of ERK1/2; set-up: method as in PMID 16484629, PMID 10098484, PMID 14670995, PMID 11117536, PMID 12970163; conditions: CRF1R and CRF2R signaling, various cell lines; cited from earlier work
β2-adrenergic receptor = tested on: β2-adrenergic receptor; set-up: method as in PMID 15489914, PMID 11278940; conditions: A431 cells; cited from earlier work
Excerpt: Moreover, there is evidence that Tyr phosphorylation of GPCRs plays a role in mediating GPCR-Src interactions ([43]). […] This residue lies within a canonical Src SH2 binding domain, and it is proposed that Src directly binds the Tyr-phosphorylated β2-AR.

rat cardiomyocytes = tested on: rat cardiomyocytes; set-up: method as in PMID 12970163; conditions: CRF2R activation by Ucn2 and Ucn3; cited from earlier work

For `CC(C)(C)n1nc(-c2ccc(Cl)cc2)c2c(N)ncnc21` [PP2], the “effect on CRF-induced Akt activation” value [1] was “completely inhibited”, the “effect on CRF-stimulated ERK1/2 phosphorylation” value ([2]; 10 μM PP2, 30 min pretreatment) was “abolished CRF-stimulated ERK1/2 phosphorylation” and the IC50 ([2]; PP2 0–20 μM, 30 min pretreatment, read-out: IC50, inhibition of CRF-stimulated ERK1/2 phosphorylation) was 2 µM. The “effect on CRF-induced Src phosphorylation” value (Src) was “CRF-induced Src phosphorylation was prevented”, the “effect on CRF-induced EGFR Tyr845 phosphorylation” value (EGFR Tyr845) was “blocked” and the “effect on CRF-stimulated activation of Src, PYK2, the EGFR, and ERK1/2” value (PYK2) was “markedly reduced or abolished the CRF-stimulated activation of Src, PYK2, the EGFR, and ERK1/2”.
For `COc1cccc(-c2cc(=O)c3ccccc3o2)c1N` [PD98059], the “effect on ERK1/2 activation” value [3] is listed as “inhibiting ERK1/2 activation”.
In the case of `CC(C)NCC(O)c1ccc(O)c(O)c1` (stereo not drawn) [isoproterenol], the “phosphorylation of β2-AR” value (β2-adrenergic receptor) is given as “results in phosphorylation of the receptor on Tyr^305”.
In the case of `CCCC[C@@H](C)/C=C(C)/C=C(\C)C(=O)NC1=C[C@@](O)(/C=C/C=C/C=C/C(=O)NC2=C(O)CCC2=O)[C@@H]2O[C@@H]2C1=O` [manumycin A], the “effect on ERK1/2 phosphorylation” value (rat cardiomyocytes) is given as “abolish ERK1/2 phosphorylation”.

From paper PMC6921279 (Frontiers in Endocrinology, 2019)
